Data set [1] is described as follows: Thermal stability in Tris-acetate-EDTA buffer of pH 8.3 at 100 degC measured upto 12 hrs by reverse-phase HPLC analysis. Particulars: pH 8.3, 12 h. It counts as physicochemical.
The nature of data set [2]: Toxicity in human RBC assessed as hemolytic activity at 50 uM measured after 1 hr by spectrophotometric analysis. Conditions: erythrocyte, 1 h, 50 µM. It counts as cell-based, Erythrocyte.
The nature of data set [3]: Toxicity in Thamnaconus modestus RBC assessed as hemolytic activity at 0.08 to 50 uM measured after 1 hr by spectrophotometric analysis. It counts as cell-based. Particulars: erythrocyte.
Data set [4] deals with RAW264.7. The data set can be described thus: Cytotoxicity against mouse RAW264.7 cells assessed as cell viability at 10 or 40 ug/ml measured after 24 hrs by WST assay. It counts as cell-based. Particulars: raw264.7, 24 h.
Data set [5] has as its system RAW264.7. Kind of data set: Toxicity in mouse RAW264.7 cells assessed as in induction of Nitric oxide production at 10 or 40 ug/ml measured after 24 hrs by Griess reaction method. It counts as cell-based. Particulars: raw264.7, 24 h. On the technique in general: Nitrite, measured by Griess reagent, commonly stands in for NO production.
The nature of data set [6]: Cytotoxicity against rat Ac2F cells at 30 uM. Format: cell-based.
The test system of data set [7] is Mus musculus. The data set can be described thus: Toxicity in mouse assessed as aggressiveness at 40 mg/kg, ip after 12 hrs. Particulars: in vivo. It counts as organism-based.
Data set [8] deals with Mus musculus. The data set can be described thus: Toxicity in mouse assessed as stiff tail at 40 mg/kg, ip after 12 hrs. Format: organism-based. Conditions: in vivo.
Data set [9] deals with Mus musculus. The data set can be described thus: Toxicity in mouse assessed as paralysis at 40 mg/kg, ip after 12 hrs. Format: organism-based. Conditions: in vivo.
Data set [10] relates to Mus musculus. Kind of data set: Toxicity in mouse assessed as convulusion at 40 mg/kg, ip after 12 hrs. Conditions: in vivo. It counts as organism-based.
Data set [11] relates to Mus musculus. The data set can be described thus: Toxicity in mouse assessed as mortality at 40 mg/kg, ip after 7 days. Format: organism-based. Conditions: in vivo, 168 h.
In data set [12] the test system is Mus musculus. The data set can be described thus: Toxicity in mouse assessed as appearance changes at 40 mg/kg, ip after 7 days. It counts as organism-based. Conditions: in vivo, 168 h.
For data set [13], the system named is Mus musculus. Kind of data set: Toxicity in mouse assessed as behavior changes at 40 mg/kg, ip after 7 days. It counts as organism-based. Conditions: in vivo, 168 h.
Data set [14] in a line: Toxicity in human RBC assessed as hemolytic activity at 2 uM measured after 1 hr by spectrophotometric analysis. Format: cell-based. Particulars: erythrocyte.

Three molecules from ChEMBL document CHEMBL3808389, “Stable and biocompatible cystine knot peptides from the marine sponge Asteropus sp” (Bioorg Med Chem, 2016) can be followed below.

Molecules are shown by their SMILES. Where a SMILES comes first, the peptide text is derived from it. Bridges are numbered along the chain shown (N, C = ends). [ ]: non-standard residue; d: D form. ξ: configuration not given here. pGlu = O=C1CC[C@@H](C(=O)O)N1; ξpGlu = O=C1CCC(C(=O)O)N1

As to `CC[C@H](C)[C@H](NC(=O)[C@@H](NC(=O)[C@H](Cc1ccc(O)cc1)NC(=O)[C@@H]1CSSC[C@@H]2NC(=O)[C@@H]3CCCN3C(=O)[C@H](CC(N)=O)NC(=O)[C@H](Cc3ccccc3)NC(=O)[C@H](CCC(=O)O)NC(=O)[C@H](C(C)C)NC(=O)[C@H](CC(=O)O)NC(=O)[C@@H]3CSSC[C@H](NC(=O)[C@H]([C@@H](C)O)NC(=O)[C@H](CC(C)C)NC(=O)[C@@H]4CCCN4C(=O)[C@@H]4CCCN4C(=O)[C@H](CSSC[C@H](NC(=O)[C@H](CC(=O)O)NC(=O)[C@@H]4CCC(=O)N4)C(=O)N4CCC[C@H]4C(=O)NCC(=O)N[C@@H](CCC(=O)O)C(=O)NCC(=O)N[C@@H](CCC(=O)O)C(=O)N[C@@H](CCC(N)=O)C(=O)N3)NC2=O)C(=O)N[C@@H]([C@@H](C)CC)C(=O)N2CCC[C@H]2C(=O)NCC(=O)N[C@@H](CC(=O)O)C(=O)N2CCC[C@H]2C(=O)N[C@@H](Cc2ccc(O)cc2)C(=O)NCC(=O)N[C@@H]([C@@H](C)CC)C(=O)N1)[C@@H](C)CC)C(=O)O` ([pGlu]DCPGEGEQCDVEFNPCCPPLTCIPGDPYGICYII-OH; disulfide 3-18, 10-23, 17-32), the Stability entry in data set [1] was “Stable”. For the same molecule, the Activity result (in [2]; in data set [3]; with RAW264.7 [4]; with RAW264.7 [5]; in data set [6]; with Mus musculus [7]) was “Non-toxic” throughout. The Activity entry with Mus musculus [8], with Mus musculus [9], in the data set with Mus musculus [10], in the data set with Mus musculus [11], in the data set with Mus musculus [12] and in the data set with Mus musculus [13] was “Non-toxic” in each case.

Turning to `CC[C@H](C)[C@@H]1NC(=O)[C@@H]2CSSC[C@@H]3NC(=O)[C@H](CO)NC(=O)[C@H](CCC(=O)O)NC(=O)CNC(=O)[C@H](CCC(=O)O)NC(=O)[C@H](Cc4ccccc4)NC(=O)[C@H](C)NC(=O)[C@@H](NC(=O)CNC(=O)C4CCC(=O)N4)CSSC[C@H](NC(=O)[C@H](CSSC[C@@H](C(=O)N[C@@H](Cc4ccc(O)cc4)C(=O)N[C@@H](Cc4ccc(O)cc4)C(=O)N[C@@H](CC(C)C)C(=O)O)NC(=O)[C@H]([C@@H](C)O)NC(=O)CNC(=O)[C@H](CC(=O)O)NC(=O)[C@@H]4CCCN4C(=O)[C@H](CC(N)=O)NC(=O)CNC(=O)[C@@H]4CCCN4C1=O)NC(=O)[C@@H]1CCCN1C(=O)[C@H](Cc1ccc(O)cc1)NC(=O)[C@H](Cc1ccccc1)NC(=O)[C@H](CCC(N)=O)NC(=O)[C@H](C(C)C)NC(=O)[C@H](CC(N)=O)NC3=O)C(=O)N1CCC[C@H]1C(=O)NCC(=O)N[C@@H](CC(C)C)C(=O)NCC(=O)N[C@@H](CC(C)C)C(=O)N[C@@H]([C@@H](C)O)C(=O)N2` (stereo partly specified) ([ξpGlu]GCAFEGESCNVQFYPCCPGLGLTCIPGNPDGTCYYL-OH; disulfide 3-18, 10-25, 17-34), the Stability entry in data set [1] was “Stable”. Also, the Activity result (in data set [2]; in [3]; with RAW264.7 [4]; in the data set on RAW264.7 [5]; with Mus musculus [7]; in the data set with Mus musculus [8]) was “Non-toxic” in each case. Also, the Activity result in the data set on Mus musculus [9], with Mus musculus [10], in the data set on Mus musculus [11], with Mus musculus [12] and with Mus musculus [13] was “Non-toxic” in each case.

For `CC[C@H](C)[C@H](NC(=O)CN)C(=O)NCC(=O)N[C@@H](C)C(=O)N[C@H](C(=O)N[C@@H](CC(C)C)C(=O)N[C@@H](CCCCN)C(=O)N[C@H](C(=O)N[C@@H](CC(C)C)C(=O)N[C@H](C(=O)N[C@H](C(=O)NCC(=O)N[C@@H](CC(C)C)C(=O)N1CCC[C@H]1C(=O)N[C@@H](C)C(=O)N[C@@H](CC(C)C)C(=O)N[C@H](C(=O)N[C@@H](CO)C(=O)N[C@@H](Cc1c[nH]c2ccccc12)C(=O)N[C@H](C(=O)N[C@@H](CCCCN)C(=O)N[C@@H](CCCNC(=N)N)C(=O)N[C@@H](CCCCN)C(=O)N[C@@H](CCCNC(=N)N)C(=O)N[C@@H](CCC(N)=O)C(=O)N[C@@H](CCC(N)=O)C(N)=O)[C@@H](C)CC)[C@@H](C)CC)[C@@H](C)O)[C@@H](C)O)C(C)C)C(C)C` [MELITTIN], the Activity entry in data set [14] is “Toxic”.
